Results from US20150037399A1, “NOVEL USE OF PIPOXOLAN AND ITS PHARMACEUTICAL COMPOSITION” (China Medical University, priority 2013, published 2015).

What was measured:
[1] = tested on: cleaved caspase-3 positive cells; experiment: Immunohistochemical staining of cleaved caspase-3 in rat brain slices; assay type: in vivo, Sprague-Dawley (SD) rats; details: rat cortex
Experimental: Nine rats were randomly assigned into 3 treatment groups, three rats for each group. Group 1 rats were treated with saline and groups 2 and 3 treated with pipoxolan (10 mg/kg and 30 mg/kg, respectively). Focal ischemia was induced by occlusion of both CCA and the right MCA as previously described. Twenty four hours after focal ischemia, rats were deeply anesthetized by intraperitoneal injection of 50 mg/kg of zoletil® followed by intracardiac perfusion with 200 ml of 0.9% saline, followed by 4% paraformaldehyde in 0.1 M PBS and animals were decapitated. The percentage of positive TUNEL staining cells within areas of the cortex was estimated. Rat brain slices were incubated with anti-caspase-3 antibodies (GTX73093, GeneTex Inc., USA) overnight and immunohistochemical labeled using a NovoLink Polymer Detection System Kit (Leica Microsystems Inc., Newcastle Upon Tyne, UK). The percentage of positive caspase-3 staining cells within the cortex was estimated based on the average number of cells in a defined area.

PCNA-positive cells = experiment: Carotid ligation model, PCNA antibody staining of the carotid artery; assay type: in vivo, ICR mice; details: mice
Experimental: Male ICR mice, weighing 20 to 25 g, were used as a carotidligation model. Fifteen mice were randomly assigned to 3 treatment groups, five mice for each group. All mice were fasted overnight with free access to water, then anesthetized with zoletil® (25 mg/kg i.p.). Carotid ligation was performed by a midline neck incision and the left common carotid artery exposed. The carotid artery was completely ligated just proximal to the carotid bifurcation, and the right carotid artery served as a non-injured control artery. The incision was closed after ligation, and the animals were allowed to recover. On the day of carotid ligation, mice were randomized into 3 treatment groups and anesthetized as described. Group 1 mice were treated with saline and groups 2 and 3 treated with pipoxolan (10 mg/kg and 30 mg/kg, respectively). Subsequent pipoxolan and saline treatments were given by gastric gavage on the second day after carotid ligation and once daily for 28 days. […] Images were digitized and analyzed with Image-Pro software. The areas of the lumen, internal elastic lamina (IEL), and external elastic lamina (EEL) were determined by computerized planimetry. The intima area was calculated by subtracting the luminal from the IEL area, and media area was determined by subtracting the IEL area from the EEL area. The ratio of intima to media area (I/M ratio) was calculated and analyzed. […]

Ras = experiment: Western blot of Ras in PDGF-BB-stimulated VSMCs; assay type: cell-based
Experimental: (§1) The role of matrix metalloproteinase-2/9 (MMP-2/9) and the Ras/MEK/ERK signaling pathways were used to evaluate the effect of pipoxolan on VSMCs migration. The protein expression levels were determined by Western blot analysis. Each vertical bars represented mean±S.E. **p<0.01 and ***p<0.001 compared with control group (n=6 in each group).

MMP-9 = experiment: Western blot of MMP-9 in PDGF-BB-stimulated VSMCs; assay type: cell-based; details: Rattus norvegicus, VSMC, read-out: inhibition of MMP-9 level
Experimental: as §1

Cl.O=C1OC(CCN2CCCCC2)OC1(c1ccccc1)c1ccccc1 (stereo not shown) [pipoxolan, 5,5-diphenyl-2-(2-piperidin-1-ylethyl)-1,3-dioxolan-4-one hydrochloride]
reduction of cleaved caspase 3 positive cells ([1]; 10 mg/kg): 37.18%
reduction of cleaved caspase 3 positive cells ([1]; 30 mg/kg): 63.44%
percent inhibition of PCNA-positive cells (PCNA-positive cells; 10 mg/kg p.o. once daily for 28 days after carotid ligation): 42.11%
percent inhibition of PCNA-positive cells (PCNA-positive cells; 30 mg/kg p.o. once daily for 28 days after carotid ligation): 62.40%
reduction of Ras protein level (Ras; 5 μM): 21%
reduction of Ras protein level (Ras; 10 μM): 24.75%
reduction of Ras protein level (Ras; 15 μM): 24%
inhibition at 5 µM (MMP-9; 5 μM): 39.4%
inhibition at 10 µM (MMP-9; 10 μM): 45.4%
inhibition at 15 µM (MMP-9; 15 μM): 36.6%
